The values that follow come from BindingDB's records for doi:10.1002/cbic.200400135 (Max Planck Institute for Coal Research, 2004).

What all share (test): Phosphatase Inhibition Assay
The target in test [1] is Dual specificity protein phosphatase 3 (Homo sapiens, UniProt P51452). The following applies: pH 6.5; 37 °C.
The target of test [2] is T1, M-phase inducer phosphatase 1 (Homo sapiens, UniProt P30304).
T1 sequence (P30304 whole entry): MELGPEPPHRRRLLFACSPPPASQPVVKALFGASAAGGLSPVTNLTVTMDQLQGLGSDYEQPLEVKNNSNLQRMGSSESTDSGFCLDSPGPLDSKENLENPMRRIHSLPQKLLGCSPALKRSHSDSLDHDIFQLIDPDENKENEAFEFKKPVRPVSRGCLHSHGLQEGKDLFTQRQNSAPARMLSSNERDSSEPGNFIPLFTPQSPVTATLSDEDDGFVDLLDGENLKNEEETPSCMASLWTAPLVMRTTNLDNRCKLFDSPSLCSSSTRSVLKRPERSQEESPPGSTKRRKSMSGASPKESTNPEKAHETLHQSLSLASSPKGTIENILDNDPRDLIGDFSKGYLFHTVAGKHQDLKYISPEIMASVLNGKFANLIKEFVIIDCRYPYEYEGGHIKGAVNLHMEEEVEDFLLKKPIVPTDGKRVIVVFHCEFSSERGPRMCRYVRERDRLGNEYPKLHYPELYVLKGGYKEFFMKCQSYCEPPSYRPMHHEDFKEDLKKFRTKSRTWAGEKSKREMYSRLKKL
The note with it: pH 8; 37 °C.

Test [3] has as its target T2, Tyrosine-protein phosphatase non-receptor type 1 (Homo sapiens, UniProt P18031).
T2 sequence (P18031 whole entry): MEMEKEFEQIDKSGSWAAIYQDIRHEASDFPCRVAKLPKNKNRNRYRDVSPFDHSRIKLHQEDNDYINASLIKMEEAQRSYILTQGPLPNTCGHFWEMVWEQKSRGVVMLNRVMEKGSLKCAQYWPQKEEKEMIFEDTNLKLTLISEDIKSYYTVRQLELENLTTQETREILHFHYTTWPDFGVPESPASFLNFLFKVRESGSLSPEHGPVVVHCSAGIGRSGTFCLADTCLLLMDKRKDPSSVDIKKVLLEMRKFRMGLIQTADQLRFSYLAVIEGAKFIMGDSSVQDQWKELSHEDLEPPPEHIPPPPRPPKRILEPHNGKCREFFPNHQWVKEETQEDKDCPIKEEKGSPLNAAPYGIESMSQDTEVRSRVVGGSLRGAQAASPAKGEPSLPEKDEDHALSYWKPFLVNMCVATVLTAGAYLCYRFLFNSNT
The following applies: pH 7.2; 37 °C.

Dual specificity protein phosphatase 3, sequence (P51452 whole entry): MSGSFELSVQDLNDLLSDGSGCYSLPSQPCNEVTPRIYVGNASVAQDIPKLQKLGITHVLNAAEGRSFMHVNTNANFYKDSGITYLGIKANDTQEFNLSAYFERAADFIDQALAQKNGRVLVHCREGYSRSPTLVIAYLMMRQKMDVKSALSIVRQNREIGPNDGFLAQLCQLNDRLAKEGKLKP

By IC50 is commonly meant the point on the concentration scale where inhibition reaches its midpoint. As to `COc1cc(-c2[nH]ccc2Cl)oc1C1=c2[nH]c3cc2[C@H](C(C)C)[C@H]1CCCCCCCC=3`, the half-maximal inhibitory concentration (IC50) in test [1] came out at 32 µM; in test [2], 28 µM; in test [3] it was 38 µM.
For the compound `C/C(=C1\C=CC=N1)c1ccc(-c2ccc[nH]2)o1`, the half-inhibitory concentration (IC50) worked out at 4.9 µM in test [1] and 40 µM in test [2].
For the compound `C/C(=C1\C=CC=N1)c1ccc(-c2[nH]ccc2Cl)o1` [3-chloro-2-(5-{1-[(2Z)-2H-pyrrol-2-ylidene]ethyl}furan-2-yl)-1H-pyrrole, 4], the values for the IC50 in test [1], in test [2] and in test [3] were 9 µM, 34 µM and 6 µM, respectively.
Take `C=CCCCCc1ccc(/C=C2\N=C(c3ccc(CCCC=C)[nH]3)C=C2OC)[nH]1` [Acyclic analogue, 10]: the half-maximal inhibitory concentration (IC50) in test [1], in test [2] and in test [3] was more than 50 µM throughout.
On to `C=CCCCCc1ccc(C=C2N=C(c3ccc(C(=O)CCC=C)[nH]3)C=C2OC)[nH]1` [Acyclic analogue, 11], for which the half-maximal inhibitory concentration (IC50) is more than 50 µM in test [1], more than 50 µM in test [2] and 32 µM in test [3].
`C=CC/C=C(/C)c1ccc(C2=N/C(=C\c3ccc(CCCCC=C)[nH]3)C(OC)=C2)[nH]1` [Acyclic analogue, 12]: the 50% inhibitory concentration (IC50) in test [1] was 9 µM; in test [2] it was more than 50 µM; in test [3], 12 µM.
Take `C=CCCCCc1ccc(/C=C2\N=C(c3ccc[nH]3)C=C2OC)[nH]1` [Acyclic analogue, 13]: the results for the IC50 in test [1], in test [2] and in test [3] were 11 µM, more than 50 µM and 11 µM, respectively.
`CCc1ccc(/C=C2\N=C(c3ccc[nH]3)C=C2OC)[nH]1` [Acyclic analogue, 14]: the results for the IC50 in test [1], in test [2] and in test [3] were 21 µM, more than 50 µM and 10 µM, respectively.
Take `C=CCCCCc1ccc(/C=C2\N=C(c3ccc(CCCC=C)s3)C=C2OC)[nH]1` [Acyclic analogue, 15]: the 50% inhibitory concentration (IC50) was 39 µM in test [1], more than 50 µM in test [2] and 28 µM in test [3].
Take `C=CCCCCc1ccc(/C=C2\NC(=O)C=C2OC)[nH]1` [Acyclic analogue, 16]: the IC50 in test [1] was 8 µM; in test [2] it was more than 50 µM; in test [3], 46 µM.
For the compound `CCc1ccc(/C=C2\NC(=O)C=C2OC)[nH]1` [Acyclic analogue, 17], the IC50 in test [1], in test [2] and in test [3] was more than 50 µM in each case.
As for `COC1=CC(=O)N/C1=C\c1ccc(CCCC/C=C/CCCCC(=O)O)[nH]1` [Acyclic analogue, 18], the figures for the IC50 in test [1], in test [2] and in test [3] were 21 µM, more than 50 µM and 16 µM, respectively.
As to `COC1=CC2=N/C1=C\c1ccc([nH]1)CCCC/C=C/CCCC1=CC=C2O1` [Cyclic analogue, 7], the IC50 in test [1] is 28 µM; in test [2], more than 50 µM; in test [3], 23 µM.
The like results for `COC1=CC2=N/C1=C\c1ccc([nH]1)CCCC/C=C/CCCCCCCCCCC1=CC=C2O1` [Cyclic analogue, 8] were, in that order, 41 µM, more than 50 µM and 24 µM.
On to `COC1=CC2=N/C1=C\c1ccc([nH]1)CCCC/C=C/CCCc1cccc2c1` [Cyclic analogue, 9], for which the IC50 is 30 µM in test [1], more than 50 µM in test [2] and more than 50 µM in test [3].
As to `CC(C)[C@H]1c2cc3[nH]c2=C(c2ccc(-c4ccc[nH]4)o2)[C@@H]1CCCCCCCC=3` [Roseophilin analogue, 3], the results for the concentration for half-maximal inhibition (IC50) in test [1], in test [2] and in test [3] were 15 µM, more than 50 µM and 10 µM, respectively.
For the compound `COc1cc(-c2[nH]ccc2Cl)oc1C1=c2[nH]c3cc2[C@@H](C(C)C)[C@@H]1CCCCCCCC=3` [Roseophilin, 2], the values for the IC50 in test [1], in test [2] and in test [3] were 6 µM, 21 µM and 6 µM, respectively.
